The values that follow come from patent publication US20060040390A1, “Device, method, system, and program for intelligent in vivo cell-level chemical or genetic material delivery” (priority 2004, published 2006).

In data set [1] the test system is neuroblastoma (B104 cells) xenografted in nude mice. Kind of data set: In vivo tumor study, B104 neuroblastoma xenografted in nude mice. From the text: Nude mice (seven weeks old, female) are used to test the effect of paclitaxel in tumor progression. […] Tumor growth is monitored daily. Mice are then randomized and treatments are initiated. […] Measurements of tumor volume are taken using calipers, every day post treatment for a total of 25 days.

Data set [2] deals with B104 cells. On the procedure: The B104 cells are a rat neuroblastoma line that expresses p75 receptors (p75^+). The 4-3.6 cells are B104 cells stably transfected with human TrkA cDNA (p75^+, TrkA^+).
Therefore, tested is whether a single bolus of paclitaxel is an effective cytotoxic agent. Cells ae exposed to the indicated concentration of paclitaxel for 30 minutes at 4° C. Then, cells are plated in a 96-well plate (Falcon); this group represents treatment with paclitaxel present in a constant manner. The remaining cells are washed free of excess paclitaxel prior to plating; this group represents a single exposure to paclitaxel. […] Optical density readings of MTT are done in an EIA Plate Reader model 2550 (Bio-Rad) at 595 nm.
Paclitaxel is lipophilic and readily penetrates the cell membrane. […] Tested is whether a single short term exposure to paclitaxel can be effective in killing neuroblastoma B104 cells. These assays are done at 4°
The mAbs purpose is purely for target binding.

In data set [3] the test system is cells that do not express p75. Kind of data set: Selectivity of paclitaxel-MC192 on cells that do not express p75. Type of data set: cell-based.
Another data set deals with 4-3.6 cells. In words: In vitro survival assay with caspase inhibitor, serum-withdrawal model, 4-3.6 cells. Type of data set: cell-based, rat. The note with it: ~48 hrs. From the text: (§1) 4-3.6 cells are placed in serum free media (SFM, PFHM-II, GIBCO, Toronto), where they undergo apoptosis (serum-withdrawal model).
Data set [4] deals with B104 cells. In words: In vitro survival assay with caspase inhibitor, B104 cells that do not express TrkA. The format is cell-based, rat. The note with it: B104 cells (no TrkA), serum free media. On the procedure: as §1
Cells are then cultured for ~48 hrs. Cell growth/survival is calculated relative to 5% serum (standardized to 100%). Addition of serum protects cells in SFM from death.
Cell survival is measured by quantitative tetrazolium salt reagent (MTT, Sigma) and optical density (OD) readings as described [Maliartchouk, 1997]. n=3-6.
Testing 4-3.6 Cell Survival (MTT, % of serum control). Serum free media 0.+−. 4 5%. Serum 100.+−. 2 20 nM zVAD−2.+−. 3 VAD-5C3 conjugate (20 nM VAD equivalent, 1 nM 41.+−. 1 5C3). […] Typicaly, […] mAb 5C3 alone (unconjugated) does protect 4-3.6 cells in SFM to ~10%, which is a much lower degree of protection than equimolar doses of the VAD-5C3 conjugate.

The next data set has as its system KB-V cells. Kind of data set: cells.
Data set [5] concerns mouse fibroblasts stably transfected with IGF-R. The following applies: 72 h.

On to `CC(=O)O[C@H]1C(=O)[C@@]2(C)[C@H]([C@H](OC(=O)c3ccccc3)[C@]3(O)C[C@H](OC(=O)[C@H](O)[C@@H](NC(=O)c4ccccc4)c4ccccc4)C(C)=C1C3(C)C)[C@]1(OC(C)=O)CO[C@@H]1C[C@@H]2O` [paclitaxel], for which the “antitumor activity, tumor growth” value in data set [1] (nude mice, five IP injections every two days, versus control (HBSS)) is recorded as “not able to do so”. Moreover, the “efficacy of free drug at the conjugate's effective dose” value in data set [1] (~3.5 nM) is “not effective at this dose”. The “cytotoxic effect, single exposure versus constant presence” value in the data set with B104 cells [2] is “generally the same whether the drug is present in the culture throughout or after a single exposure”. Moreover, the “cytotoxicity, constant versus single dose” value in the data set with B104 cells [2] (rat, 48 h) was “the same after 48 hours whether a constant or a single dose is given”. For the same compound, in data set [3], the “cytotoxicity on cells that do not express p75” value is recorded as “dose-dependent cytotoxicity”.

With “benzoic acid-Valine-Alanine-Aspartic acid-O-methyl-fluoromethyl-Iketone peptide [zVAD]”, in the data set on 4-3.6 cells, the “protection of cells in SFM” value is on record as “does not protect cells”. Moreover, the “protection of B104 cells from death” value in the data set with B104 cells [4] was “Neither 20 nM zVAD nor VAD-5c3 conjugate afford protection”.

Consider `COc1cccc2c1C(=O)c1c(O)c3c(c(O)c1C2=O)C[C@@](O)(C(=O)CO)C[C@@H]3O[C@H]1C[C@H](N)[C@H](O)[C@H](C)O1` [Doxorubicin], for which the “cytotoxicity on multidrug resistant KB-V cells compared to sensitive KB cells” value in the data set with KB-V cells is “inactive on KB-V cells unless Verapamil was added”. Also, in the data set with KB-V cells (Homo sapiens, KBV, 72 h, read-out: IC50 ± SEM), the IC50 – broadly, the concentration that inhibits the measured activity by half – was > 320 nM. Also, in data set [5], the “cytotoxicity with or without excess antibody” value is listed as “the same cytotoxicity whether excess of mig or α-IR3 is present or not”.
